Test results from patent US12503432B2, “Ionizable lipids for nucleic acid delivery” (Global Life Sciences Solutions Canada ULC, priority 2019, dated 2025).

How the values were obtained:
primary human T cells = assay: GFP mRNA LNP transfection of isolated primary human T cells, flow cytometry; assay type: cell-based; parameters: key to GFP Protein expression: Human T cell: *: The number of asterix symbols indicates protein expression levels interpreted by the inventors from quantitative data; **: The number of asterix symbols indicates protein expression levels interpreted by the inventors from quantitative data; ***: The number of asterix symbols indicates protein expression levels interpreted by the inventors from quantitative data; ****: The number of asterix symbols indicates protein expression levels interpreted by the inventors from quantitative data; *****: The number of asterix symbols indicates protein expression levels interpreted by the inventors from quantitative data; *******: The number of asterix symbols indicates protein expression levels interpreted by the inventors from quantitative data; conditions: for GFP Protein expression: Human T cell: qualitative grade interpreted from quantitative data; for transfecting T cells in vitro, Mean Fluorescence Intensity (MFI): dose 500 ng, MC3 as control, FIG. 3
Method: Downstream processing and analysis of treated T cells were done with flow cytometry and ELISA. Reagents were from Stemcell Technologies, Vancouver, Canada unless otherwise stated. […] At 48H following LNP-mediated mRNA exposure, the treated T cells were harvested by transferring the cell suspensions to pre-labeled 1.5 mL tubes and centrifuged 300×G at 4 degrees C. for 10 minutes. Supernatant was removed and the pellet resuspended in PBS. An amount of 0.5 ul of BD Horizon™ Fixable Viability Stain 575V™ (BD Biosciences), was added, and the mixture incubated in the dark for 10 minutes at RT. This stain binds to intracellular amines of a permeable plasma cell membrane of a necrotic cell and can be used to differentiate a viable cell and a non-viable cell during a flow cytometry assay.
The cells were centrifuged again as before, then washed twice with 1 mL of Stain buffer (BSA, BD Pharminigen), and the washed pellet was placed in 100 μl BSA. The following antibodies were added to each tube of treated cells in 2 μl volumes: CD25, CD8, CD4, (PerCP-Cy™ 5.5 Mouse Anti Human CD25, BV786 Mouse Anti-Human CD8 Clone RPA-T8, and APC-Cy™7 Mouse Anti-Human CD4 Clone SK3, all from BD Pharmingen™) with the exception of the controls: in the eGFP only sample and viability control, no antibody was added. In the single stain compensation tubes, only one antibody per tube was added.
The tubes were incubated at 4 degrees C. for 30 min, whereupon 400 μl of stain buffer (BSA) was added, and the cells were centrifuged again. Cells were washed once with 1 mL of stain buffer and spun down again. Cell pellets were resuspended in 1 mL of stain buffer and added to pre-labeled flow tubes with cell strainer caps (Corning Falcon).
After transfection, flow cytometry was used to generate eGFP or EPO expression levels as well as MFI values for the studies. […]
After transfection, flow cytometry was used to general GFP expression levels as well as MFI values for the studies.
Ionizable lipids of the invention, and MC3, were compared in a composition of CT10 at an N/P ratio of 10 for their ability to induce transfection as measured by MFI of labeled mRNA in T cells (as measured by flow cytometry).
T Cells were prepared and treated as previously described using negative selection and the triple activation protocol.
In order to expose the isolated and activated T cells (Day 0) to the formulated mRNA, […] media, with 1 μg/mL of Recombinant Human ApoE4 (“ApoE”) (Peprotech Inc., Montreal, Canada).
The dose of mRNA LNP was calculated based upon Ribogreen™ assay results. T cells were counted through Trypan blue (Sigma) exclusion and diluted to 500,000 cells/mL. Briefly, in a 12 well plate, 1 mL was aliquoted into each well. ApoE was added to a final concentration of 1 μg/mL in each well. Based upon the calibration, the required amount of mRNA LNP was added (day 3 to 7), and the plate incubated for 48 hours.

[1] = TNS fluorescence assay: experimental pKa of formulated lipid nanoparticles; assay type: physicochemical; conditions: experimental surface pKa of empty LNP, cationic lipid/DSPC/cholesterol/PEG-lipid (50/10/38.5/1.5)
Method: The pKa of each cationic lipid was determined in lipid nanoparticles using an assay based on fluorescence of 6-(p-Toluidino)-2-naphthalenesulfonic acid sodium salt (TNS, Sigma Aldrich), which is a fluorescent probe for the conformational state of proteins^5. Empty lipid nanoparticles comprising of cationic lipid/DSPC/cholesterol/PEG-lipid (50/10/38.5/1.5) in distilled water at a concentration of 3.125 mM total lipid are formulated using NanoAssemblr® Spark™, and were then was characterized for LNP quality on the Zetasizer™ using a 30× dilution with 1×PBS in the low volume cuvette. Lipid nanoparticles were further diluted 4× using distilled water to 0.781 mM total lipid. TNS was prepared as a 25 μM stock solution in distilled water. Then 6.4 μL of diluted LNP samples of 0.781 mM total lipid were mixed with 10 μL of diluted TNS to a final volume of 250 μL with buffer containing 10 mM HEPES, 10 mM MES, 10 mM NH4OAc and 130 mM NaCl where the pH ranged from 3 to 9 in 0.5 pH increments.
Samples were mixed thoroughly, and the fluorescence intensity was measured at room temperature in a BioTek™ Synergy™ H1 Hybrid Multi-Mode Monochromator™ Fluorescence Microplate Reader using excitation and emission wavelengths of 321 nm and 445 nm respectively. A sigmoidal best fit analysis was applied to the fluorescence data using GraphPad Prism™ software, and the pKa was measured as the pH at half-maximal fluorescence intensity.

pKa [1]	SMILES	GFP Protein expression: Human T cell (primary human T cells)	transfecting T cells in vitro, Mean Fluorescence Intensity (MFI) (primary human T cells; CT10 composition)	transfection efficiency in T cells from different donors (primary human T cells; CT10, N/P 10, 48 h after treatment, six donors, FIG. 2)	Cell viability (primary human T cells; CT10, N/P 10, compared to untreated cells (control))	transfection efficiency (primary human T cells; CT10 composition, N/P 10, LNP 7 days post activation, FIG. 1)
5.52	CC/C=C\CC1C(CC(=O)OCCC(CCCCCCCC)OC(=O)C(CCCCCC)CCCCCCCC)CCC1OC(=O)CCN(C)C (centres unmarked) [PNI 554]	***	–	–	–	–
6.18	CC/C=C\CC1C(CC(=O)OC(CCCCCCCCC2CC2CCCCCCCC)CCCCCCCCC2CC2CCCCCCCC)CCC1OC(=O)CCCN(C)C (centres unmarked) [PNI 516]	*****	–	–	–	–
6.01	CC/C=C\CC1C(CC(=O)OCC(COCCCCCCCC/C=C\C/C=C\CCCCC)OCCCCCCCC/C=C\C/C=C\CCCCC)CCC1OC(=O)C1(C)CCN(C)CC1 (centres unmarked) [PNI 123]	***	–	–	–	–
5.99	CC/C=C\CC1C(CC(=O)OCCC(CCCCCCCC)OC(=O)C(CCCCCC)CCCCCCCC)CCC1OC(=O)C1(C)CCN(C)CC1 (centres unmarked) [PNI 565]	*******	substantially as good or better than MC3	–	–	–
6.1	CC/C=C\CC1C(CC(=O)OCC(COCCCCCCCC/C=C\C/C=C\CCCCC)OCCCCCCCC/C=C\C/C=C\CCCCC)CCC1OC(=O)C1CCN(C)CC1 (centres unmarked) [PNI 132]	*******	substantially as good or better than MC3	–	–	–
5.16	CC/C=C\CC1C(CC(=O)OCC(COCCCCCCCC/C=C\C/C=C\CCCCC)OCCCCCCCC/C=C\C/C=C\CCCCC)CCC1OC(=O)CC1CCCCN1C (centres unmarked) [PNI 559]	**	–	–	–	–
6.7	CC/C=C\CC1C(CC(=O)OCC(COCCCCCCCC/C=C\C/C=C\CCCCC)OCCCCCCCC/C=C\C/C=C\CCCCC)CCC1OC(=O)CC1CCN(C)C1 (centres unmarked) [PNI 557]	***	–	–	–	–
5.27	CC/C=C\CC1C(CC(=O)OC(CCCCCCCCC2CC2CCCCCCCC)CCCCCCCCC2CC2CCCCCCCC)CCC1OC(=O)CCN(C)C (centres unmarked) [PNI 549]	**	–	–	–	–
5.7	CC/C=C\CC1C(CC(=O)OC(CCCCCCCCC2CC2CCCCCCCC)CCCCCCCCC2CC2CCCCCCCC)CCC1OC(=O)C1(C)CCN(C)CC1 (centres unmarked) [PNI 560]	****	–	–	–	–

Continued, compound first:

SMILES	pKa [1]	GFP Protein expression: Human T cell (primary human T cells)	transfecting T cells in vitro, Mean Fluorescence Intensity (MFI) (primary human T cells; CT10 composition)	transfection efficiency in T cells from different donors (primary human T cells; CT10, N/P 10, 48 h after treatment, six donors, FIG. 2)	Cell viability (primary human T cells; CT10, N/P 10, compared to untreated cells (control))	transfection efficiency (primary human T cells; CT10 composition, N/P 10, LNP 7 days post activation, FIG. 1)
CCCCCCCCC1CC1CCCCCCCCOCC(COC(=O)CC1CCC(OC(=O)CCCN(C)C)C1CC1CC1CC)OCCCCCCCCC1CC1CCCCCCCC (centres unmarked) [PNI 545]	5.91	*****	–	–	–	–
CCCCCCCCC1CC1CCCCCCCCOCC(COC(=O)CC1CCC(OC(=O)CCN(C)C)C1CC1CC1CC)OCCCCCCCCC1CC1CCCCCCCC (centres unmarked) [PNI 546]	4.84	*	–	–	–	–
CC/C=C\CC1C(CC(=O)OCC(COCCCCCCCC/C=C\C/C=C\CCCCC)OCCCCCCCC/C=C\C/C=C\CCCCC)CCC1OC(=O)CCCN(CC)CC (centres unmarked) [PNI 542]	6.11	*****	–	–	–	–
CC/C=C\CC1C(CC(=O)OCC(COCCCCCCCCC2CC2CCCCCCCC)OCCCCCCCCC2CC2CCCCCCCC)CCC1OC(=O)CCN(C)C (centres unmarked) [PNI 544]	5.68	***	–	–	–	–
CC/C=C\CC1C(CC(=O)OCC(COCCCCCCCC/C=C\C/C=C\CCCCC)OCCCCCCCC/C=C\C/C=C\CCCCC)CCC1OC(=O)CCCN1CCCC1 (centres unmarked) [PNI 558]	6.28	*	–	–	–	–
CC/C=C\CC1C(CC(=O)OCC(COCCCCCCCC/C=C\C/C=C\CCCCC)OCCCCCCCC/C=C\C/C=C\CCCCC)CCC1OC(=O)CCCN(C)C (centres unmarked) [PNI 101]	6.37	****	–	greater than those containing MC3 in six tested donors	unaffected	greater transfection efficiency than either DODMA or MC3
